Laboratory results: patent US20240374612A1, “IMIDAZOBENZO[…] TREATMENT OF COGNITIVE AND MOOD SYMPTOMS” (UWM Research Foundation, Inc., priority 2021, published 2024)
Entries after “also recorded” stand apart in the source; their conditions may differ.

Experiments:
[1] = system: C57/Bl6 mice subjected to chronic restraint stress (working memory deficit); assay: Y-maze alternation task after chronic restraint stress (CRS); assay type: in vivo; settings: acute, 30 min before testing, vs CRS vehicle
Protocol: Young Animals and chronic stress procedure: C57/Bl6 mice, males and females at 8 weeks old and are kept in normal housing conditions (12 h light ON cycle starting at 7 am/water and food ad libitum) for one week. During this week, animals are single housed and handled to reduce the anxiety-like response toward the experimenter. To induce a working memory deficit, mice are subjected to a chronic restraint stress protocol (CRS). They are placed in a 50 mL Falcon® tube, twice a day, for 1 hour during their diurnal cycle. The time of occurrence of the stress is randomized every day to avoid predictability. CRS is not applied on testing days. Y-maze test occurs 15 hours minimum after the last stressor.
Protocol: Mice are first habituated to the Y-maze apparatus and distal cues during 2 consecutive days over a 10 min free exploration session (one session per day). The next day, animals perform a training session consisting in seven successive trials separated by a 30 s inter-trial interval (ITI); during this training session, mice are familiarized with the experimental procedure (opening and closing of the doors and confinement into the goal arms). For each trial, mice remain in the start-box for a 30 s ITI. Then, the door is opened and the mouse is allowed to enter freely one of the two goal arms; the chosen arm is closed and the choice is recorded. After a 30 s confinement period into the chosen arm, the mouse is removed and brought back to the start-box for a second trial identical to the first one and this procedure is repeated over the series of trials.
The same general procedure used in the training session is implemented 24 h later, except that the ITI was lengthened to 90 s. For this experiment, animals are acutely injected i.p. with vehicle or drug, 30 minutes before the beginning of the test. To dissociate memory deficits from an eventual progressive loss of motivation to alternate over the series, an 8th trial is added to the series which is separated from the 7th trial by a shorter ITI (5 s). All animals failing to alternate at the 8th trial are excluded. The mean alternation rate is calculated and is expressed in percentage (number of alternation done by the animal/total number of alternation possible×100)±SEM. The percentage of alternation during the entire task is considered as an index of working memory performance (50% of being a random alternation rate). Factorial ANOVA is applied to the data to reveal differences between groups. If the ANOVA is significant for group effect (p<0.05), Scheffe post-hoc analysis are conducted to identify which groups are different from each other.
Drug preparation and administration: All drugs are diluted in a vehicle solution containing 85% H2O, 14% propylene glycol (Sigma Aldrich) and 1% Tween 80 (Sigma Aldrich). Working solutions are prepared at a concentration of 10 mg/mL and administered i.p. adjusted to the body weight of each animal. Doses used are either 1, 5, 10 or 20 mg/kg. For all Y maze experiments, animals are acutely injected i.p. with vehicle or drug, 30 minutes before the beginning of the test.

[2] = system: mice (anxiety like behaviors); assay: Elevated plus maze (EPM); assay type: in vivo; settings: vs vehicle
Protocol: The EPM is commonly used in preclinical rodent models to assess anxiety-like behaviors. Briefly, mice are placed in a cross-shaped maze raised at 55 cm from the floor, with 2 open arms facing each other, and 2 closed arms facing each other. During testing, mice are individually placed in the center of the maze facing an open arm and allowed to explore for 10 minutes. Throughout testing, the exploration of each mouse is recorded using a digital camera mounted on the ceiling. After 10 minutes of exploration, the camera is stopped and the mouse is removed from the maze and returned to its home cage. The videos are analyzed using Ethovision XT14 software. Specific parameters considered are: % time spent in the open arms, calculated using ([(total time spent in open arms)/(total time spent in open arms+total time spent in closed arms)]*100) and the number of open arm entries.

[3] = 3 mg/kg i.p., 30 min before testing

SMILES | reversal of CRS-induced reduction of alternation rate (Y-maze) ([1]; 30 mg/kg i.p.) | reversal of CRS-induced reduction of alternation rate (Y-maze) ([1]; 3 mg/kg i.p.) | reversal of CRS-induced reduction of alternation rate (Y-maze) ([1]; 10 mg/kg i.p.) | also measured
C#Cc1ccc2c(c1)C(c1ccccc1Cl)=N[C@H](C)c1c(-c3nc(CC)no3)ncn1-2 [PM-II-84E, (R)-5-(6-(2-chlorophenyl)-8-ethynyl-4-methyl-4H-benzo[f]imidazo[1,5-a][1,4]diazepin-3-yl)-3-ethyl-1,2,4-oxadiazole] | reversed | – | – | time spent in the open arms (EPM) ([2]; 10 mg/kg i.p., 30 min before testing): significant effect; also recorded: increasing time spent in the open arms; distance travelled in the open arms (EPM) ([2]; 10 mg/kg i.p.): trend level effect
C#Cc1ccc2c(c1)C(c1ccccc1Cl)=N[C@@H](C)c1c(C(=O)NC)ncn1-2 [FR-III-17, (S)-6-(2-chlorophenyl)-8-ethynyl-N,4-dimethyl-4H-benzo[f]imidazo[1,5-a][1,4]diazepine-3-carboxamide] | – | significantly reversed | – | reversal of CRS-induced reduction of alternation rate (Y-maze) ([1]; 0.3 mg/kg i.p.): significantly reversed; reversal of CRS-induced reduction of alternation rate (Y-maze) ([1]; 1 mg/kg i.p.): significantly reversed; % distance traveled in the open arms (EPM) [2, 3]: significantly increase; % entries in the open arms (EPM) [2, 3]: significantly increase; % time in the open arms (EPM) [2, 3]: significantly increase
CCc1noc(-c2ncn3c2[C@@H](C)N=C(c2ccccc2F)c2cc(C4CC4)ccc2-3)n1 [GL-IV-03, (R)-5-(8-Cyclopropyl-6-(2-fluorophenyl)-4-methyl-4H-benzo[f]imidazo[1,5-a][1,4]diazepin-3-yl)-3-ethyl-1,2,4-oxadiazole] | reversed | reversed | – | –
C#Cc1ccc2c(c1)C(c1ccccc1Cl)=N[C@H](C)c1c(C(=O)N(C)C)ncn1-2 [PM-II-26, (R)-6-(2-chlorophenyl)-8-ethynyl-N,N,4-trimethyl-4H-benzo[f]imidazo[1,5-a][1,4]diazepine-3-carboxamide] | a trend was observed; also recorded: reversed (trend: p=0.1) | – | reversed (p<0.001) | –
CC(C)c1noc(-c2ncn3c2[C@@H](C)N=C(c2ccccc2F)c2cc(Cl)ccc2-3)n1 [MYM-IV-46, (R)-5-(8-chloro-6-(2-fluorophenyl)-4-methyl-4H-benzo[f]imidazo[1,5-a][1,4]diazepin-3-yl)-3-isopropyl-1,2,4-oxadiazole] | trend level effect | no significant effect | significantly reversed; also recorded: improved alternation rate | –
C#Cc1ccc2c(c1)C(c1ccccc1Cl)=N[C@@H](C)c1c(-c3nc(C)no3)ncn1-2 [FR-PM-III-57S, (S)-5-(6-(2-chlorophenyl)-8-ethynyl-4-methyl-4H-benzo[f]imidazo[1,5-a][1,4]diazepin-3-yl)-3-methyl-1,2,4-oxadiazole] | trend level effect | – | significantly reversed; also recorded: significantly improved alternation rate | –
C#Cc1ccc2c(c1)C(c1ccccc1F)=N[C@H](C)c1c(-c3nc(C4CC4)no3)ncn1-2 [MYM-V-28, (R)-3-cyclopropyl-5-(8-ethynyl-6-(2-fluorophenyl)-4-methyl-4H-benzo[f]imidazo [1,5-a][1,4]diazepin-3-yl)-1,2,4-oxadiazole] | significantly reversed; also recorded: significantly improved alternation rate | – | significantly reversed; also recorded: significantly improved alternation rate | –
CCc1noc(-c2ncn3c2CN=C(c2ccccc2F)c2cc(C4CC4)ccc2-3)n1 [MYM-III-43, 5-(8-cyclopropyl-6-(2-fluorophenyl)-4H-benzo[f]imidazo[1,5-a][1,4]diazepin-3-yl)-3-ethyl-1,2,4-oxadiazole] | reversed | reversed | reversed | –
C#Cc1ccc2c(c1)C(c1ccccc1Cl)=N[C@H](C)c1c(-c3nc(C)no3)ncn1-2 [PM-III-57R, (R)-5-(6-(2-chlorophenyl)-8-ethynyl-4-methyl-4H-benzo[f]imidazo[1,5-a][1,4]diazepin-3-yl)-3-methyl-1,2,4-oxadiazole] | – | – | significantly reversed; also recorded: significantly improved alternation rate | –
C[C@H]1N=C(c2ccccc2F)c2cc(-c3ccccc3)ccc2-n2cnc(C(=O)N(C)C)c21 [MYM-III-41, (R)-6-(2-fluorophenyl)-N,N,4-trimethyl-8-phenyl-4H-benzo[f]imidazo[1,5-a][1,4]diazepine-3-carboxamide] | – | – | reversed | reversal of CRS-induced reduction of alternation rate (Y-maze) ([1]; 5 mg/kg i.p.): reversed
C#Cc1ccc2c(c1)C(c1ccccn1)=N[C@@H](C)c1c(C(=O)NC)ncn1-2 [MYM-III-29, (S)-8-ethynyl-N,4-dimethyl-6-(pyridin-2-yl)-4H-benzo[f]imidazo[1,5-a][1,4]diazepine-3-carboxamide] | – | no significant difference between groups | reversed (p<0.05) | distance travelled in the open arms (EPM) ([2]; 10 mg/kg i.p.): increasing distance travelled in the open arms
Cc1noc(-c2ncn3c2[C@@H](C)N=C(c2ccccc2F)c2cc(Br)ccc2-3)n1 [GL-III-60, (R)-5-(8-Bromo-6˜(2-fluorophenyl)-4-methyl-4H-benzo[f]imidazo[1,5-a][1,4]diazepin-3-yl)-3-methyl-1,2,4-oxadiazole] | reversed | – | reversed | –
C[C@H]1N=C(c2ccccc2F)c2cc(Cl)ccc2-n2cnc(-c3nc(C4CC4)no3)c21 [MYM-IV-47, (R)-5-(8-chloro-6-(2-fluorophenyl)-4-methyl-4H-benzo[f]imidazo[1,5-a][1,4]diazepin-3-yl)-3-cyclopropyl-1,2,4-oxadiazole] | significantly reversed | no significant effect | significantly reversed | –
